Data taken from patent US6358883B1, “Pesticidal and parasiticidal use of 1-aryl-1-(substituted thio, sulfinyl and sulfonyl)-2-nitroethane compounds” (American Cyanamid Company, priority 1998, dated 2002).

Columns and labels:
Type in all cases: in vivo
[1] = system: Diabrotica undecimpunctata howardi, eggs-southern corn rootworm (SCR-Eggs); experiment: Southern corn rootworm eggs (SCR-Eggs) treated diet test; parameters: key: 0 = no effect; 1 = 10-25% kill; 2 = 26-35% kill; 3 = 36-45% kill; 4 = 46-55% kill; 5 = 56-65% kill; 6 = 66-75% kill; 7 = 76-85% kill; 8 = 86-99% kill; 9 = 100% kill; conditions: mortality after 7 days
Outline: (§1)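 Compounds dissolved at 10,000 ppm in 35% acetone/water, diluted with water, applied to artificial diet in wells and dried. Southern corn rootworm or southern armyworm eggs placed on treated diet under vented covers; mortality counted after 7 days.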

[2] = system: C. elegans (Bristol strain); experiment: Evaluation of test compounds against C. elegans (motility, 96-well plate); parameters: key: 9=complete kill in 4 hours; 8=complete kill in 24 hours; 7=markedly reduced motility in approximately 95% of worms in 24 hours; 0=normal motility, same as controls; conditions: motility at 4 and 24 hours
Outline: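 Bristol-strain C. elegans in Na buffer added to wells containing dried compound (applied in 80% acetone) and incubated at 20 °C. Motility of adults and larvae scored subjectively but semi-quantitatively under a dissecting microscope at 4 and 24 h after immersion, plates tapped before reading.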

[3] = system: Aphis gossypii, cotton aphid (CA); experiment: Cotton aphid (CA) cotyledon dip test; parameters: key: 0 = no effect; 1 = 10-25% kill; 2 = 26-35% kill; 3 = 36-45% kill; 4 = 46-55% kill; 5 = 56-65% kill; 6 = 66-75% kill; 7 = 76-85% kill; 8 = 86-99% kill; 9 = 100% kill; conditions: mortality after 5 days
Outline: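 Cotyledon-stage cotton plants infested overnight via a heavily infested leaf, then dipped in test solution (compound in 35% acetone/water, diluted with water) and dried. Mortality counted after 5 days.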

[4] = system: Tetranychus urticae (OP-resistant strain), 2-spotted spider mite (TSM); experiment: 2-spotted spider mite (TSM) plant dip test; parameters: key: 0 = no effect; 1 = 10-25% kill; 2 = 26-35% kill; 3 = 36-45% kill; 4 = 46-55% kill; 5 = 56-65% kill; 6 = 66-75% kill; 7 = 76-85% kill; 8 = 86-99% kill; 9 = 100% kill; conditions: mortality after 2 days
Outline: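 OP-resistant mites (~100 per leaf) were transferred onto Sieva lima bean primary leaves about 2 h before treatment. Infested plants were dipped for 3 s in compound from a 10,000 ppm stock in 35% acetone/water, diluted with water. Mortality was counted after 2 days.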

[5] = system: M. incognita (Root Knot Nematode) larvae; experiment: Evaluation of test compounds against M. incognita larvae in microtiter plate wells (movement score); conditions: larvae scored for movement after 20-24 hours; also: key: A score of '9' indicates inactive worms with a straight, sticklike morphology; A score of '8' indicates inactive worms with a limp, curled or curved morphology; A score of '7' indicates dead/paralyzed worms after 72 hours
Outline: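 Newly emerged M. incognita larvae in S Medium (buffered salt solution), 50-65 worms per well, exposed to test compounds in sealed microtiter wells. Movement scored after 20-24 h incubation; wells with obviously dead/paralyzed larvae scored positive. A score of "7" denotes dead/paralyzed worms after […].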

[6] = system: Spodoptera eridania, 2nd instar larvae, southern armyworm (SAW); experiment: Southern armyworm (SAW) leaf dip test; parameters: key: 0 = no effect; 1 = 10-25% kill; 2 = 26-35% kill; 3 = 36-45% kill; 4 = 46-55% kill; 5 = 56-65% kill; 6 = 66-75% kill; 7 = 76-85% kill; 8 = 86-99% kill; 9 = 100% kill
Outline: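 Compound is dissolved at 10,000 ppm in 35% acetone/water, then diluted with water. Lima bean leaves are dipped for 3 seconds, dried and placed with ten 2nd instar larvae on damp filter paper. Mortality, reduced feeding and molting interference are scored at 5 days.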

[7] = system: Diabrotica virgifera virgifera Leconte, 2nd instar western corn rootworm (WCR); experiment: Western corn rootworm (WCR) soil test; parameters: key: 0 = no effect; 1 = 10-25% kill; 2 = 26-35% kill; 3 = 36-45% kill; 4 = 46-55% kill; 5 = 56-65% kill; 6 = 66-75% kill; 7 = 76-85% kill; 8 = 86-99% kill; 9 = 100% kill
Outline: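 Compound in 35% acetone/water applied to talc at 1.25 mg active ingredient per jar (about 50 kg/ha), solvent evaporated, then mixed with millet seed and moist soil. Ten 2nd-instar larvae per jar; mortality counted after 5 days, missing larvae scored dead.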

[8] = system: Spodoptera eridania, eggs-southern armyworm (SAW-Eggs); experiment: Southern armyworm eggs (SAW-Eggs) treated diet test; parameters: key: 0 = no effect; 1 = 10-25% kill; 2 = 26-35% kill; 3 = 36-45% kill; 4 = 46-55% kill; 5 = 56-65% kill; 6 = 66-75% kill; 7 = 76-85% kill; 8 = 86-99% kill; 9 = 100% kill; conditions: mortality after 7 days
Outline: as §1

With `COc1ccc(C(C[N+](=O)[O-])SCC(=O)OCCCCCC(C)C)cc1` (stereo not drawn) [Example 50] the “SCR Eggs (1000 ppm) rating” value [1] was 0, the “Rating Against C. elegans (150 ppm)” value [2] was 7 and the “CA (300 ppm) rating” value [3] was 0. The “TSM (300 ppm) rating” value [4] was 0, the “M. incognita (150 ppm) score” value [5] was 0 and the “SAW (300 ppm) rating” value [6] was 0. For the same molecule, the “WCR (50 ppm) rating” value [7] was 0 and the “SAW Eggs (300 ppm) rating” value [8] was 9 (9 = 100% kill).

For `CCCCC(CC)COC(=O)CSC(C[N+](=O)[O-])c1ccc(OC)cc1` (stereo not drawn) [Example 51], the “SCR Eggs (1000 ppm) rating” value [1] was 8 (8 = 86-99% kill), the “Rating Against C. elegans (150 ppm)” value [2] was 0 and the “CA (300 ppm) rating” value [3] was 0. The “TSM (300 ppm) rating” value [4] was 0, the “M. incognita (150 ppm) score” value [5] was 0 and the “SAW (300 ppm) rating” value [6] was 0. The “WCR (50 ppm) rating” value [7] was 4 (4 = 46-55% kill) and the “SAW Eggs (300 ppm) rating” value [8] was 9 (9 = 100% kill).

With `COc1ccc(C(C[N+](=O)[O-])SCc2ccccc2)cc1` (stereo not drawn) [Example 52] the “SCR Eggs (1000 ppm) rating” value [1] was 0, the “Rating Against C. elegans (150 ppm)” value [2] was 9 and the “CA (300 ppm) rating” value [3] was 0. For the same molecule, the “TSM (300 ppm) rating” value [4] was 0, the “M. incognita (150 ppm) score” value [5] was 9 and the “SAW (300 ppm) rating” value [6] was 0. For the same molecule, the “WCR (50 ppm) rating” value [7] was 4 (4 = 46-55% kill) and the “SAW Eggs (300 ppm) rating” value [8] was 0.

For `CCCSC(C[N+](=O)[O-])c1ccc(OC)cc1` (stereo not drawn) [Example 53], the “SCR Eggs (1000 ppm) rating” value [1] was 0, the “Rating Against C. elegans (150 ppm)” value [2] was 9 and the “CA (300 ppm) rating” value [3] was 0. The “TSM (300 ppm) rating” value [4] was 0, the “M. incognita (150 ppm) score” value [5] was 9 and the “SAW (300 ppm) rating” value [6] was 4 (4 = 46-55% kill). The “WCR (50 ppm) rating” value [7] was 0 and the “SAW Eggs (300 ppm) rating” value [8] was 0.

`C=CCSC(C[N+](=O)[O-])c1ccc(OC)cc1` (stereo not drawn) [Example 54] was tested, and the “SCR Eggs (1000 ppm) rating” value [1] was 0, the “Rating Against C. elegans (150 ppm)” value [2] was 9 and the “CA (300 ppm) rating” value [3] was 0. The “TSM (300 ppm) rating” value [4] was 0, the “M. incognita (150 ppm) score” value [5] was 9 and the “SAW (300 ppm) rating” value [6] was 0. For the same molecule, the “WCR (50 ppm) rating” value [7] was 5 (5 = 56-65% kill) and the “SAW Eggs (300 ppm) rating” value [8] was 0.

In the case of `COC(=O)CSC(C[N+](=O)[O-])c1cccc(OC)c1` (stereo not drawn) [Example 55], the “SCR Eggs (1000 ppm) rating” value [1] is reported as 0, the “Rating Against C. elegans (150 ppm)” value [2] is reported as 8 and the “CA (300 ppm) rating” value [3] is reported as 0. For the same molecule, the “TSM (300 ppm) rating” value [4] was 0, the “M. incognita (150 ppm) score” value [5] was 9 and the “SAW (300 ppm) rating” value [6] was 4 (4 = 46-55% kill). The “WCR (50 ppm) rating” value [7] was 0 and the “SAW Eggs (300 ppm) rating” value [8] was 0.

`CCOC(=O)CSC(C[N+](=O)[O-])c1cccc(OC)c1` (stereo not drawn) [Example 56] was tested, and the “SCR Eggs (1000 ppm) rating” value [1] was 0, the “Rating Against C. elegans (150 ppm)” value [2] was 8 and the “CA (300 ppm) rating” value [3] was 0. For the same molecule, the “TSM (300 ppm) rating” value [4] was 5 (5 = 56-65% kill), the “M. incognita (150 ppm) score” value [5] was 9 and the “SAW (300 ppm) rating” value [6] was 0. For the same molecule, the “WCR (50 ppm) rating” value [7] was 0 and the “SAW Eggs (300 ppm) rating” value [8] was 0.

For `CCCCOC(=O)CSC(C[N+](=O)[O-])c1cccc(OC)c1` (stereo not drawn) [Example 57], the “SCR Eggs (1000 ppm) rating” value [1] was 0, the “Rating Against C. elegans (150 ppm)” value [2] was 7 and the “CA (300 ppm) rating” value [3] was 0. For the same molecule, the “TSM (300 ppm) rating” value [4] was 0, the “M. incognita (150 ppm) score” value [5] was 9 and the “SAW (300 ppm) rating” value [6] was 0. For the same molecule, the “WCR (50 ppm) rating” value [7] was 0 and the “SAW Eggs (300 ppm) rating” value [8] was 0.

In the case of `COc1cccc(C(C[N+](=O)[O-])SCC(=O)OCCCCCC(C)C)c1` (stereo not drawn) [Example 58], the “SCR Eggs (1000 ppm) rating” value [1] is reported as 0, the “Rating Against C. elegans (150 ppm)” value [2] is reported as 0 and the “CA (300 ppm) rating” value [3] is reported as 0. The “TSM (300 ppm) rating” value [4] was 0, the “M. incognita (150 ppm) score” value [5] was 0 and the “SAW (300 ppm) rating” value [6] was 0. The “WCR (50 ppm) rating” value [7] was 0 and the “SAW Eggs (300 ppm) rating” value [8] was 0.

In the case of `CCCCC(CC)COC(=O)CSC(C[N+](=O)[O-])c1cccc(OC)c1` (stereo not drawn) [Example 59], the “SCR Eggs (1000 ppm) rating” value [1] is reported as 0, the “Rating Against C. elegans (150 ppm)” value [2] is reported as 0 and the “CA (300 ppm) rating” value [3] is reported as 0. The “TSM (300 ppm) rating” value [4] was 0, the “M. incognita (150 ppm) score” value [5] was 0 and the “SAW (300 ppm) rating” value [6] was 0. The “WCR (50 ppm) rating” value [7] was 0 and the “SAW Eggs (300 ppm) rating” value [8] was 0.

In the case of `COc1cccc(C(C[N+](=O)[O-])SCc2ccccc2)c1` (stereo not drawn) [Example 60], the “SCR Eggs (1000 ppm) rating” value [1] is reported as 0, the “Rating Against C. elegans (150 ppm)” value [2] is reported as 0 and the “CA (300 ppm) rating” value [3] is reported as 0. For the same molecule, the “TSM (300 ppm) rating” value [4] was 0, the “M. incognita (150 ppm) score” value [5] was 0 and the “SAW (300 ppm) rating” value [6] was 0. The “WCR (50 ppm) rating” value [7] was 0 and the “SAW Eggs (300 ppm) rating” value [8] was 0.

In the case of `CCCSC(C[N+](=O)[O-])c1cccc(OC)c1` (stereo not drawn) [Example 61], the “SCR Eggs (1000 ppm) rating” value [1] is reported as 0, the “Rating Against C. elegans (150 ppm)” value [2] is reported as 7 and the “CA (300 ppm) rating” value [3] is reported as 5 (5 = 56-65% kill). The “TSM (300 ppm) rating” value [4] was 0, the “M. incognita (150 ppm) score” value [5] was 0 and the “SAW (300 ppm) rating” value [6] was 0. For the same molecule, the “WCR (50 ppm) rating” value [7] was 0 and the “SAW Eggs (300 ppm) rating” value [8] was 0.

In the case of `C=CCSC(C[N+](=O)[O-])c1ccc(OC(F)(F)F)cc1` (stereo not drawn) [Example 123], the “SCR Eggs (1000 ppm) rating” value [1] is reported as 0, the “Rating Against C. elegans (150 ppm)” value [2] is reported as 7 and the “CA (300 ppm) rating” value [3] is reported as 0. For the same molecule, the “TSM (300 ppm) rating” value [4] was 0, the “M. incognita (150 ppm) score” value [5] was 0 and the “SAW (300 ppm) rating” value [6] was 0. For the same molecule, the “WCR (50 ppm) rating” value [7] was 5 (5 = 56-65% kill) and the “SAW Eggs (300 ppm) rating” value [8] was 8 (8 = 86-99% kill).

In the case of `O=[N+]([O-])CC(SCc1ccccc1)c1ccc(OC(F)(F)F)cc1` (stereo not drawn) [Example 124], the “SCR Eggs (1000 ppm) rating” value [1] is reported as 0, the “Rating Against C. elegans (150 ppm)” value [2] is reported as 7 and the “CA (300 ppm) rating” value [3] is reported as 0. For the same molecule, the “TSM (300 ppm) rating” value [4] was 0, the “M. incognita (150 ppm) score” value [5] was 0 and the “SAW (300 ppm) rating” value [6] was 0. For the same molecule, the “WCR (50 ppm) rating” value [7] was 0 and the “SAW Eggs (300 ppm) rating” value [8] was 9 (9 = 100% kill).

`C=CCSC(C[N+](=O)[O-])c1ccc2ccccc2c1` (stereo not drawn) [Example 125] was tested, and the “SCR Eggs (1000 ppm) rating” value [1] was 0, the “Rating Against C. elegans (150 ppm)” value [2] was 0 and the “CA (300 ppm) rating” value [3] was 0. For the same molecule, the “TSM (300 ppm) rating” value [4] was 0, the “M. incognita (150 ppm) score” value [5] was 0 and the “SAW (300 ppm) rating” value [6] was 0. The “WCR (50 ppm) rating” value [7] was 0 and the “SAW Eggs (300 ppm) rating” value [8] was 0.
